The test system of experiment [1] is H2O2 level in Colo357 cell line. The experiment is described as follows: Measurement of H2O2 level in Colo357 cell line (FIG. 8A). The experiment is classed as cell-based. The note with it: CPPD 20 μmol·L−1, Doxo 25 μmol·L−1.
Experimental: Intracellular H2O2 production in live cells was measured using Total ROS/superoxide detection kit (Enzo life science), following the manufacturer's instructions. The assay uses specific H2O2/RNS probes that upon reaction with H2O2 and RNS species are oxidized rapidly to highly fluorescent compounds. Fluorescence intensity is proportional to the total H2O2/RNS levels within the sample. […] The day before the analysis, cells were seeded in 96-well black/clear bottom plates at a density of 2×10^4 in culture media according to cell suppliers instructions, supplemented with FBS (10% v/v), 10 units of penicillin/ml and 100 mg of streptomycin. Cells were kept at 37° C. in a humid atmosphere of 95% air: 5% CO2 overnight. […] After the incubation period, wells were loaded with 100 μL of H2O2 Detection Solution, containing the respective treatment agent or controls and incubated for 60 min at 37° C. in the dark. Several wells were left without cells for the background fluorescence control measurements. Plates were read using Appliskan fluorescence microplate reader (Thermo Scientific) (ex=560 nm, Em=600). Data are expressed as the change in arbitrary fluorescence units produced from equal amount of cells and normalized to total protein input.
Experiment [2] concerns Colo357. The experiment is described as follows: Viability of Colo357 cells under combination treatment (FIG. 8B). The experiment is classed as cell-based. The note with it: Colo357 (high GSH), combination treatment with S-methyl 4-(dimethylamino)-4-methylpent-2-ynethioate.
Experiment [3] deals with HCC827. The experiment can be described thus: Cell viability assay (Rezasurin), 96 well format. Type of experiment: cell-based. The note with it: Homo sapiens, 48 h, DIMATE alone or with PCN 40 μM, read-out: abs.IC50.
Experiment [4] has as its system Hop62. The experiment can be described thus: Cell viability assay (Rezasurin), 96 well format. The experiment is classed as cell-based. The conditions noted are these: Homo sapiens, HOP-62, 48 h, DIMATE alone or with PCN 40 μM, read-out: abs.IC50.
The subject of experiment [5] is MSC. The experiment is described as follows: Quantification of MDA and HNE adducts by ELISA in resistant cells. The conditions noted are these: 5 or 10 μmol·L^−1, 24 hours. The experiment is classed as cell-based. On the procedure: (§1) Quantitative Determination of FINE-Protein and MDA/Protein Adducts by ELISA
(§2) The formation of HNE-adducts and MDA-adducts was quantified with the Oxiselect HNE Adduct Elisa kit (Cell Biolabs, San Diego, Calif.) and the OxiSelect MDA Adduct ELISA Kit (Cell Biolabs), respectively. Briefly, after a treatment with S-methyl 4-(dimethylamino)-4-methylpent-2-ynethioate during 24 hours, cells were lysed by sonication in reducing SDS Sample Buffer. Homogenates were diluted to 10 μg protein/mL and adsorbed in 96-well protein binding plates by incubation at 37° C. for at least 2 hours. Wells were washed twice with PBS and incubated for an additional 2 hours at room temperature on an orbital shaker. Following three washes in PBS, 100 μL of anti-HNE antibody or anti-MDA antibody were added to the wells and incubated for 1 hour at room temperature. Subsequently, goat anti-rabbit secondary antibody-HRP conjugate (diluted 1/1000 with the assay diluent) was added and incubation continued for 1 hour. Wells were washed five times in PBS and HRP-substrate was added. Reaction was stopped with an acidic solution, and absorbance read on a microplate reader at 450 nm. The level of HNE-adducts and of MDA-adducts was determined by comparison with a standard curve prepared from HNE-BSA and MDA-BSA standards supplied by the manufacturer.
For orientation: In an ELISA, binding on a coated surface is turned into a signal by an enzyme label.

Experiment [6] relates to THP-1. The experiment is described as follows: Cell viability assay (Rezasurin), 96 well format. The experiment is classed as cell-based. The note with it: Homo sapiens, 48 h.
In experiment [7] the test system is HL-60, NT2/D1. The experiment can be described thus: Quantification of MDA and HNE adducts by ELISA in sensitive cells. The note with it: 5 or 10 μmol·L^−1, 24 hours. Type of experiment: cell-based, human. On the procedure:
as §1, §2

The conditions of experiment [8]: cited from earlier work.
Experiment [9] concerns H2O2 levels. The experiment can be described thus: Measurement of H2O2 production after cell exposure to pyocianin. Type of experiment: cell-based, human. The conditions noted are these: pyocianin 40 μM. On the procedure: Measurement of H2O2 Production
Intracellular H2O2 production in live cells was measured using Total ROS/superoxide detection kit (Enzo life science), following the manufacturer's instructions. The assay uses specific H2O2/RNS probes that upon reaction with H2O2 and RNS species are oxidized rapidly to highly fluorescent compounds. Fluorescence intensity is proportional to the total H2O2/RNS levels within the sample. […] The day before the analysis, cells were seeded in 96-well black/clear bottom plates at a density of 2×10^4 in culture media according to cell suppliers instructions, supplemented with FBS (10% v/v), 10 units of penicillin/ml and 100 […]. Cells were kept at 37° C. in a humid atmosphere of 95% air: 5% CO2 overnight. On the day of the analysis, cells media was replaced by 100 μL of phenol free-media supplemented as above, without any treatment, with S-methyl 4-(dimethylamino)-4-methylpent-2-ynethioate for 6 hours, vehicle HEPES for 6 hours, or with the different control agents PCN and NAC for 20 min. […] Several wells were left without cells for the background fluorescence control measurements. Plates were read using Appliskan fluorescence microplate reader (Thermo Scientific) (ex=560 nm, Em=600). Data are expressed as the change in arbitrary fluorescence units produced from equal amount of cells and normalized to total protein input.

In experiment [10] the test system is cancer cells. The experiment can be described thus: Cell viability after exposure to pyocianin. The conditions noted are these: pyocianin 40 μM. Type of experiment: cell-based, human. On the procedure:
Cells were seeded into 96-well cell culture plates at concentrations required to ensure approximately 80% confluence in control (untreated cells) at the end of experiment (0.5×10^4-5×10^4 cell/well). The sensitivity towards S-methyl 4-(dimethylamino)-4-methylpent-2-ynethioate was determined using different concentrations of the drug (from 0.01 to 100 μM). After 48 hours, the growth-inhibitory effect of the drug was analyzed using Rezasurin, according to manufactures instruction. To ensure good data quality and to minimize impact of pipetting errors, each particular drug concentration was assessed based on mean fluorescence intensity from 8 separate wells. The drug response was quantified by the half maximal inhibitory concentration (IC50) for each particular cell line, and determined by non-linear regression analysis of log-dose/response curves. Cut-off value for resistance to S-methyl 4-(dimethylamino)-4-methylpent-2-ynethioate was determined statistically (>2 S.D. above the IC50 geometric mean). The in-vitro threshold value for hypersensitivity to the drug has been defined as <IC50 geometric mean.
In a different experiment, cells showing resistance to S-methyl 4-(dimethylamino)-4-methylpent-2-ynethioate (THP-1, HCC827, and Hop62) were challenged with H2O2 inducer. […]

Where two headings read alike, the source gives them in different places.

Take `N.N.[Cl][Pt][Cl]` [CPPD, Cisplatin]: the “increase of H2O2 level” value in experiment [1] turned out to be 200%. Further, in experiment [2], the effect on viability result is “no effect”.

The term IC50 denotes the concentration that gives 50% inhibition. Consider `CSC(=O)C#CC(C)(C)N(C)C` [DIMATE, S-methyl 4-(dimethylamino)-4-methylpent-2-ynethioate], for which the IC50 in experiment [3] turned out to be 25 µM; in experiment [4], 39 µM; in [6] (THP-1, DIMATE alone or with PCN 40 μM, read-out: abs.IC50), 46 µM; in [6] (THP-1 resistant cells, DIMATE alone or with H2O2 inducer at fixed concentration (2-ME 100 μM, ATO 1 μM, Daunorubicine 40 nM, Doxorubicine 20 nM, Etoposide 500 nM, Mitoxanthrone 50 nM, Parthenolide 100 nM, Piperlongumine 2 μM), read-out: IC50), 46 µM. Also, the HNE-adducts level is recorded as < 1 μg per μg of total protein in experiment [5] and > 1 μg per μg of total protein in experiment [7]. The figures for the MDA-adducts level in experiment [5] and in [7] were < 100 ng per μg of total protein and “above 100 ng per μg of total protein”, respectively.

In the case of `COc1cccc2c1C(=O)c1c(O)c3c(c(O)c1C2=O)C[C@@](O)(C(=O)CO)C[C@@H]3O[C@H]1C[C@H](N)[C@H](O)[C@H](C)O1` [Doxo, Doxorubicin], the “increase of H2O2 level” value in experiment [1] was 10 000%. Further, the effect on viability entry in experiment [2] was “no effect”.

Take `CC(=O)N[C@@H](CS)C(=O)O` [NAC, N-acetyl-L-cysteine]: the “rate constant, scavenging of hydroxy radicals” value in [8] (hydroxy radicals) is given as 1.36×10^10 M^−1,s^−1. For the same molecule, in [8] (superoxide anion), the “reaction with superoxide anion” value is reported as “no reaction”.

`Cn1c2cccc(=O)c-2nc2ccccc21` [pyocianin, pyocyanin]: the “increase in H2O2 levels” value in experiment [9] is “two-fold increase”. Also, the “effect on cell viability” value in experiment [10] is given as “without affecting cell viability”.

(Values after patent US10406125B2, “Combination comprising an aminothiolester compound or a pharmaceutically acceptable salt thereof and a compound able to increase the H2O2 level in cancer cells of a subject” (ADVANCED BIODESIGN, priority 2015, dated 2019).)
